According to US20260055102A1 (Redx Pharma Limited, priority 2022, published 2026):

Assays:
[1] = molecular target: Recombinant human DDR1 (aa440-876 containing a GST tag) (Homo sapiens (Human), UniProt Q08345); assay: LanthaScreen Eu Kinase Binding Assay DDR1; conditions: Kinase Tracer 178 5 nM, at least two independent replicates; for IC50: read-out: DDR1 pIC50 (converted)
Procedure: (§1) DDR1 and DDR2 Biochemical Assay Method The capacity of compounds to bind to DDR1 and DDR2 was quantified using a LanthaScreen Eu Kinase Binding Assay. Recombinant human DDR1 (2.5 nM; aa440-876 containing a GST tag) and DDR2 (1.75 nM; aa427-855 containing a GST tag) were diluted in assay buffer (50 mM HEPES pH7.3, 10 mM MgCl2, 1 mM EGTA and 0.01% Tween) with various concentrations of compound in a 384-well plate and a volume of 5 uL. After a 30-minute incubation at room temperature, 2.5 uL of Eu-anti GST antibody (diluted to 1 nM in assay buffer) plus Kinase Tracer 178 (diluted in assay buffer to 5 nM for DDR1 and 10 nM for DDR2) were added to the plate. Following 60-minute incubation at room temperature, time-resolved fluorescence was measured on a BMG Labtech PHERAstar plate reader. DMSO (1%) and reference compound (1 μM) were used to generate the Max and Min assay signals, respectively. Data was analysed using a four-parameter logistic model to calculate IC50 values, with at least two independent replicates were performed for each compound.

[2] = molecular target: Recombinant human DDR2 (aa427-855 containing a GST tag) (Homo sapiens (Human), UniProt Q16832); assay: LanthaScreen Eu Kinase Binding Assay DDR2; conditions: Kinase Tracer 178 10 nM, at least two independent replicates; for IC50: read-out: DDR2 pIC50 (converted)
Procedure: as §1

Recombinant human DDR2 (aa427-855 containing a GST tag), sequence (Q16832 427-855): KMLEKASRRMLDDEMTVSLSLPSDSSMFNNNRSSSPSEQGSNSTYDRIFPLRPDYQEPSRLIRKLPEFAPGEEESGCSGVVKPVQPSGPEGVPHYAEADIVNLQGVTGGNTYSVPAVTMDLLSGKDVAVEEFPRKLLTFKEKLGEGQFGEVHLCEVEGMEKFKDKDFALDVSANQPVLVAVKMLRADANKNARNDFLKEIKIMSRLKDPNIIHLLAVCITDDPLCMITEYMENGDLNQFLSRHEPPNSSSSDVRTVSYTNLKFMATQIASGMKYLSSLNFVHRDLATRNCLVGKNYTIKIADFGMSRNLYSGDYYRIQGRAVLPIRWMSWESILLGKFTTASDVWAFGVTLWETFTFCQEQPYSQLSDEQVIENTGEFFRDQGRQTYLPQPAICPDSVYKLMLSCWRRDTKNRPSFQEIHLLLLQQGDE
Recombinant human DDR1 (aa440-876 containing a GST tag), sequence (Q08345 other isoform, or with tags, fused parts or gaps): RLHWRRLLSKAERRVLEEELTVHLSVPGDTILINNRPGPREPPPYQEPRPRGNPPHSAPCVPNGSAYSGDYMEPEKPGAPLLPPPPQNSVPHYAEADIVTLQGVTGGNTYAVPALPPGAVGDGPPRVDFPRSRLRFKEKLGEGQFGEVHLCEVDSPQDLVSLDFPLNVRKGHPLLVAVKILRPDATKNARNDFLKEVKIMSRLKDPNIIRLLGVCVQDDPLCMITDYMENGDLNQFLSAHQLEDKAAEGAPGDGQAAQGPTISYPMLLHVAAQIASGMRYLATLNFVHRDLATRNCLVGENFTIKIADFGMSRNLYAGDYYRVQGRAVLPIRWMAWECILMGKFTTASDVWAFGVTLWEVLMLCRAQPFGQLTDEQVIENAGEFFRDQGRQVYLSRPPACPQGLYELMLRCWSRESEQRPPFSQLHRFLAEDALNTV

Compound	IC50 [1]	DDR2 pIC50 [2]	DDR1 pIC50 [1]	IC50 [2]
Cn1ncc2c(-c3ccc(-n4c(=O)n(CC(=O)NC5CC5(F)F)c5ccccc54)cc3)cncc21 (centres unmarked) [Example 36, N-(2,2-difluorocyclopropyl)-2-[3-[4-(1-methylpyrazolo[3,4-c]pyridin-4-yl)phenyl]-2-oxobenzimidazol-1-yl]acetamide]	100 to 1000 nM	D (pIC50≤6)		
Cc1cc(-c2cncc3[nH]ncc23)ccc1-n1c(=O)n(CC(=O)NCC(F)(F)F)c2ccccc21 [Example 14, 2-[3-[2-methyl-4-(1H-pyrazolo[3,4-c]pyridin-4-yl)phenyl]-2-oxobenzimidazol-1-yl]-N-(2,2,2-trifluoroethyl)acetamide]			A (pIC50>8)	100 to 1000 nM
Cc1cccc2c1n(-c1ccc(-c3cncc4c3cnn4C)cc1)c(=O)n2CC(=O)N1CCC[C@H]1CF [Example 45, 1-[2-[(2S)-2-(fluoromethyl)pyrrolidin-1-yl]-2-oxo-ethyl]-4-methyl-3-[4-(1-methylpyrazolo[3,4-c]pyridin-4-yl)phenyl]benzimidazol-2-one]			A (pIC50>8)	10 to 100 nM
C[C@@H]1CCCN1C(=O)Cn1c(=O)n(-c2ccc(-c3cncc4c3cnn4C)cc2)c2ccccc21 [Example 27, 1-[4-(1-methylpyrazolo[3,4-c]pyridin-4-yl)phenyl]-3-[2-[(2R)-2-methylpyrrolidin-1-yl]-2-oxoethyl]benzimidazol-2-one]	10 to 100 nM	D (pIC50≤6)		
Cc1cccc2c1n(-c1ccc(-c3cncc4c3cnn4C)nc1)c(=O)n2CC(=O)NCC(F)(F)F [Example 50, 2-[4-methyl-3-[6-(1-methylpyrazolo[3,4-c]pyridin-4-yl)-3-pyridyl]-2-oxo-benzimidazol-1-yl]-N-(2,2,2-trifluoroethyl)acetamide]			A (pIC50>8)	10 to 100 nM
Cc1cccc2c1n(-c1ccc(-c3cncc4c3cnn4C)cc1)c(=O)n2CC(=O)N1CCOC(C(F)(F)F)C1 (centres unmarked) [Example 9, 4-methyl-3-[4-(1-methylpyrazolo[3,4-c]pyridin-4-yl)phenyl]-1-[2-oxo-2-[2-(trifluoromethyl)morpholin-4-yl]ethyl]benzimidazol-2-one]			A (pIC50>8)	10 to 100 nM
Cc1cccc2c1n(-c1ccc(-c3cncc4c3cnn4C)nc1)c(=O)n2CC(=O)N[C@H](C)C(F)(F)F [Example 51, 2-[4-methyl-3-[6-(1-methylpyrazolo[3,4-c]pyridin-4-yl)-3-pyridyl]-2-oxo-benzimidazol-1-yl]-N-[(1R)-2,2,2-trifluoro-1-methyl-ethyl]acetamide]	10 to 100 nM			100 to 1000 nM
Cc1cccc2c1n(-c1ccc(-c3cncc4c3cnn4C)nc1)c(=O)n2CC(=O)N1CCC[C@H]1C(F)(F)F [Example 56, 4-methyl-3-[6-(1-methylpyrazolo[3,4-c]pyridin-4-yl)-3-pyridyl]-1-[2-oxo-2-[(2S)-2-(trifluoromethyl)pyrrolidin-1-yl]ethyl]benzimidazol-2-one]			A (pIC50>8)	10 to 100 nM
Cc1cc(-n2c(=O)n(CC(=O)NCC(F)(F)F)c3cccc(C)c32)cnc1-c1cncc2c1cnn2C [Example 97, 2-[4-methyl-3-[5-methyl-6-(1-methylpyrazolo[3,4-c]pyridin-4-yl)-3-pyridyl]-2-oxo-benzimidazol-1-yl]-N-(2,2,2-trifluoroethyl)acetamide]		D (pIC50≤6)	D (pIC50≤6)	
Cn1ncc2c(-c3ccc(-n4c(=O)n(CC(=O)N5CCC[C@@H](C(F)(F)F)C5)c5ccccc54)cc3)cncc21 [Example 29, 1-[4-(1-methylpyrazolo[3,4-c]pyridin-4-yl)phenyl]-3-[2-oxo-2-[(3R)-3-(trifluoromethyl)-1-piperidyl]ethyl]benzimidazol-2-one]		D (pIC50≤6)	A (pIC50>8)	
